This is an account of results in patent publication US9868766B2, “Peptides as oxytocin agonists” (Hoffmann-La Roche Inc., priority 2012, dated 2018).

Positions of bridges follow the written chain, without caps; N, C: chain ends. Non-standard residues stand in square brackets, D forms with d. Residues, ends and D or L forms follow the SMILES beside them. Phe(4-NH2) = Nc1ccc(C[C@H](N)C(=O)O)cc1; Hyp = O=C(O)[C@@H]1C[C@@H](O)CN1; aThr = C[C@H](O)[C@H](N)C(=O)O; Tle = CC(C)(C)[C@H](N)C(=O)O; Sar = CNCC(=O)O

Common to all, as to assay type: cell-based
Experiment [1] deals with T1, human Oxytocin (OTR) receptor (Homo sapiens, UniProt P30559).
T1 construct: expressed in transfected cells
T1 sequence (P30559 1-389): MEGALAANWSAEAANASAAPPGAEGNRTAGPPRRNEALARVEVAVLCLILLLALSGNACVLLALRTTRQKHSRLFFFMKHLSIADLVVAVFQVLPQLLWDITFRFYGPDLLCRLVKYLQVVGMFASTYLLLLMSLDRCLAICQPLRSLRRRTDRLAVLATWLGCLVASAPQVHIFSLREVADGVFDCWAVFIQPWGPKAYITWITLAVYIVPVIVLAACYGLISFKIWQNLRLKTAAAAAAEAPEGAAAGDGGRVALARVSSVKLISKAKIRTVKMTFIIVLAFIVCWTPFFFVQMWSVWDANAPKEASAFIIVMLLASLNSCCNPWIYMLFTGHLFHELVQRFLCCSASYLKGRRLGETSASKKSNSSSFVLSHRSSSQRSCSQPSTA
Put plainly: Calcium flux assay (FLIPR), agonist mode, CHO cells expressing human OTR. To be noted: for EC50: CHO cells stably expressing human OTR, calcium flux, read-out: hOT EC50; for Emax: CHO, read-out: hOT efficacy (%); for Emax / hOT efficacy (%): maximum response normalized to endogenous full agonist = 100%. The text has this: (§1) Chines Hamster Ovary (CHO) cells were transfected with expression plasmids encoding either the human V1a, the human Oxytocin (OTR) or the humanV2 receptor, the later in combination with the chimeric Gqs5 G protein to redirect the signal to Calcium flux. Stable cells were cloned by limiting dilution to yield monoclonal cell lines expressing either human V1a, human V2+Gqs5 or human OTR receptors and selected based on functional responses detected on a fluorometric imaging plate reader (FLIPR) detecting Calcium flux in the cell after receptor activation.
On the afternoon before the assay, cells were plated at a density of 50,000 cells/well into black 96 well plates with clear bottoms to allow cell inspection and fluorescence measurements from the bottom of each well. The density of cells was sufficient to yield a confluent monolayer the next day. Hanks balanced salt solution, without phenol red, containing 20 mM HEPES (pH 7.3) and 2.5 mM probenecid (assay buffer) was prepared fresh for each experiment. Compound dilutions were made using a Beckman Biomek 2000 laboratory automation workstation, in assay buffer containing 1% DMSO. The dye-loading buffer consisted of a final concentration of 2 μM Fluo-4-AM (dissolved in DMSO and pluronic acid) in assay buffer. […] Once dye-loaded, the cells were washed thoroughly on an Embla cell washer with the assay buffer to remove any unincorporated dye. Exactly 100 μl assay buffer was left in each well.
Each 96 well plate containing dye-loaded cells was placed into the FLIPR machine and the laser intensity set to a suitable level to detect low basal fluorescence. To test compounds as agonists, 25 μl diluted compound was added to the plate 10 seconds into the fluorescent measurements and fluorescent response was recorded for 5 minutes. The fluorescence data was normalized to the endogenous full agonist dose-response set at 100% for the maximum response and 0% for the minimum. […] The concentration of agonist that produced a half-maximal response is represented by the EC50 value, the logarithm of which yielded the pEC50 value.

The target of experiment [2] is T2, human V1a receptor (Homo sapiens, UniProt P37288).
T2 construct: expressed in transfected cells
T2 sequence (P37288 whole entry): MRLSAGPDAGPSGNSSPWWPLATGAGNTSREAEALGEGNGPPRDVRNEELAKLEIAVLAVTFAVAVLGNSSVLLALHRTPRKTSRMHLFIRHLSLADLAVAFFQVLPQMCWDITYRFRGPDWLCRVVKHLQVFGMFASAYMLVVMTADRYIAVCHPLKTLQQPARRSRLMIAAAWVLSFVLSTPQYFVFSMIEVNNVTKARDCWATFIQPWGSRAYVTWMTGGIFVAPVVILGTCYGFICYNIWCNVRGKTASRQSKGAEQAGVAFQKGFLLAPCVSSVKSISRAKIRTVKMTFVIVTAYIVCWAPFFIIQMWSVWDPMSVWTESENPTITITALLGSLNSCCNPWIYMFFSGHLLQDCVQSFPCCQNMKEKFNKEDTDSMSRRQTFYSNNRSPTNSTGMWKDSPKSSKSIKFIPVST
Put plainly: Calcium flux assay (FLIPR), agonist mode, CHO cells expressing human V1a. To be noted: for EC50: CHO cells stably expressing human V1a, calcium flux, read-out: hV1a EC50.
Excerpt: as §1, with “activation. The stable cell lines were grown in F-12 K Nutrient Mixture (Kaighns Modification), containing 10% foetal bovine serum (FBS), 1% penicillin-streptomycin, 1% L-glutamate, 200 ug/ml Geneticin at 37° C. in a 10% CO2 incubator at 95% humidity.” for “activation.”
(§2) On the afternoon before the assay, cells were plated at a density of 50,000 cells/well into black 96 well plates with clear bottoms to allow cell inspection and fluorescence measurements from the bottom of each well. The density of cells was sufficient to yield a confluent monolayer the next day. Hanks balanced salt solution, without phenol red, containing 20 mM HEPES (pH 7.3) and 2.5 mM probenecid (assay buffer) was prepared fresh for each experiment. Compound dilutions were made using a Beckman Biomek 2000 laboratory automation workstation, in assay buffer containing 1% DMSO. The dye-loading buffer consisted of a final concentration of 2 μM Fluo-4-AM (dissolved in DMSO and pluronic acid) in assay buffer. The existing culture media was removed from the wells and 100 μl of the dye-loading buffer was added to each well and incubated for approximately 60 min at 37° C. in a 5% CO2 incubator at 95% humidity. Once dye-loaded, the cells were washed thoroughly on an Embla cell washer with the assay buffer to remove any unincorporated dye. Exactly 100 μl assay buffer was left in each well.
(§3) Each 96 well plate containing dye-loaded cells was placed into the FLIPR machine and the laser intensity set to a suitable level to detect low basal fluorescence. To test compounds as agonists, 25 μl diluted compound was added to the plate 10 seconds into the fluorescent measurements and fluorescent response was recorded for 5 minutes. The fluorescence data was normalized to the endogenous full agonist dose-response set at 100% for the maximum response and 0% for the minimum. Each agonist concentration-response curve was constructed using a four parameter logistic equation with Microsoft Excel XLFit as follows: Y=Minimum+((Maximum−Minimum)/(1+10^(Log EC50-X)nH)), where y is the % normalized fluorescence, minimum is the minimum y, maximum is the maximum y, log EC50 is the log10 concentration which produces 50% of the maximum induced fluorescence, x is the log10 of the concentration of the agonist compound and H is the slope of the curve (the Hill Coefficient). The maximum value gives the efficacy of the agonist test compound in percentage. The concentration of agonist that produced a half-maximal response is represented by the EC50 value, the logarithm of which yielded the pEC50 value.

Experiment [3] concerns the target T3, human V2 receptor (Homo sapiens, UniProt P30518).
T3 construct: expressed in transfected cells
Put plainly: Calcium flux assay (FLIPR), agonist mode, CHO cells expressing human V2 + Gqs5. To be noted: for EC50: CHO cells stably expressing human V2 + chimeric Gqs5, calcium flux, read-out: hV2 EC50; for Emax: CHO, read-out: hV2 efficacy (%).
Excerpt: as §1, with “activation. The stable cell lines were grown in F-12 K Nutrient Mixture (Kaighns Modification), containing 10% foetal bovine serum (FBS), 1% penicillin-streptomycin, 1% L-glutamate, 200 ug/ml Geneticin at 37° C. in a 10% CO2 incubator at 95% humidity.” for “activation.”
as §2, §3

The mark [4] stands for this setting: maximum response normalized to endogenous full agonist = 100%.

T3 sequence (P30518 whole entry): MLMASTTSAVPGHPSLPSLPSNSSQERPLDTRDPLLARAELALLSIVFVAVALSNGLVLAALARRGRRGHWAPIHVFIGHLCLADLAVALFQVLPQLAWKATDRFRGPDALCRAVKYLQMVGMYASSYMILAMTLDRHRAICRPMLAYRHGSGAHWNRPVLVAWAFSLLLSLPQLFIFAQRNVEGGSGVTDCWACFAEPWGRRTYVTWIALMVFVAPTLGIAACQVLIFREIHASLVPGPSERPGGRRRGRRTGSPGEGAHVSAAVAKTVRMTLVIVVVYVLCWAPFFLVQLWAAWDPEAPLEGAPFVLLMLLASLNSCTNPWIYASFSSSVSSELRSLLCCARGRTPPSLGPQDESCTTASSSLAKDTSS

With `CC[C@H](C)[C@H](NC(=O)CN(C)C(=O)[C@@H]1CCC(=O)NCC(=O)N[C@@H](Cc2ccc(O)cc2)C(=O)N[C@@H]([C@@H](C)CC)C(=O)N[C@@H](CCC(N)=O)C(=O)N[C@@H](CC(N)=O)C(=O)N1)C(=O)NCC(N)=O` [Example 33] (GYIQNE[Sar]IG-NH2; lactam N-6), the EC50 was 2 nM in experiment [1], greater than 27000 nM in experiment [2] and 3820 nM in experiment [3]. The Emax worked out at 119% in experiment [1] and 101% in experiment [3] (setting [4]).
Taken in the same sequence, the figures for `CC[C@H](C)[C@@H]1NC(=O)[C@H](Cc2ccc(O)cc2)NC(=O)CNC(=O)CC[C@@H](C(=O)N(C)CC(=O)N[C@H](C(=O)NCC(N)=O)C(C)(C)C)NC(=O)[C@H](CC(N)=O)NC(=O)[C@H](CCC(N)=O)NC1=O` [Example 44] (GYIQNE[Sar][Tle]G-NH2; lactam N-6) were 0.5 nM, greater than 27000 nM, 1230 nM, 117% and 112%.
On to `CC[C@H](C)[C@@H]1NC(=O)[C@H](Cc2ccc(O)cc2)NC(=O)CNC(=O)CC[C@@H](C(=O)N(C)CC(=O)N[C@@H](Cc2c[nH]cn2)C(=O)NCC(N)=O)NC(=O)[C@H](CC(N)=O)NC(=O)[C@H](CCC(N)=O)NC1=O` [Example 34] (GYIQNE[Sar]HG-NH2; lactam N-6), for which the EC50 in experiment [1] is 10 nM; in experiment [2], greater than 10000 nM; in experiment [3] it was 145 nM. The “hOT efficacy (%)” value in experiment [1] is listed as 136%. For the same compound, the “hV2 efficacy (%)” value in experiment [3] (setting [4]) amounted to 120%.
Turning to `CC[C@H](C)[C@@H]1NC(=O)[C@H](Cc2ccc(O)cc2)NC(=O)CNC(=O)CC[C@@H](C(=O)N(C)CC(=O)N[C@H](C(=O)NCC(N)=O)[C@H](C)O)NC(=O)[C@H](CC(N)=O)NC(=O)[C@H](CCC(N)=O)NC1=O` [Example 25] (GYIQNE[Sar][aThr]G-NH2; lactam N-6), the EC50 in experiment [1] was 3 nM; in experiment [2], greater than 10000 nM; in experiment [3], 3820 nM. Also, the “hOT efficacy (%)” value in experiment [1] was 125%. Moreover, the Emax in experiment [3] (setting [4]) came to 103%.
`CC[C@H](C)[C@@H]1NC(=O)[C@H](Cc2ccc(O)cc2)NC(=O)CNC(=O)CC[C@@H](C(=O)N(C)CC(=O)N[C@@H](Cc2ccc(O)cc2)C(=O)NCC(N)=O)NC(=O)[C@H](CC(N)=O)NC(=O)[C@H](CCC(N)=O)NC1=O` [Example 32] (GYIQNE[Sar]YG-NH2; lactam N-6): the EC50 is 4 nM in experiment [1], greater than 10000 nM in experiment [2] and 1990 nM in experiment [3]. The Emax in experiment [1] amounted to 119%; in experiment [3] (setting [4]) it was 106%.
`CC[C@H](C)[C@@H]1NC(=O)[C@H](Cc2ccc(O)cc2)NC(=O)CNC(=O)CC[C@@H](C(=O)N(C)CC(=O)N[C@@H](Cc2ccc(N)cc2)C(=O)NCC(N)=O)NC(=O)[C@H](CC(N)=O)NC(=O)[C@H](CCC(N)=O)NC1=O` [Example 1] (GYIQNE[Sar][Phe(4-NH2)]G-NH2; lactam N-6): the EC50 in experiment [1] is 10 nM; in experiment [2] it was greater than 27000 nM; in experiment [3], 4800 nM. Further, in experiment [1], the “hOT efficacy (%)” value was determined as 111%. Moreover, the Emax in experiment [3] (setting [4]) came to 107%.
In the same order, the values of `CC[C@H](C)[C@@H]1NC(=O)[C@H](Cc2ccc(N)cc2)NC(=O)CNC(=O)CC[C@@H](C(=O)N(C)CC(=O)N[C@@H](CC(C)C)C(=O)NCC(N)=O)NC(=O)[C@H](CC(N)=O)NC(=O)[C@H](CCC(N)=O)NC1=O` [Example 2] (G[Phe(4-NH2)]IQNE[Sar]LG-NH2; lactam N-6) are 9 nM, greater than 27000 nM, 7910 nM, 112% and 74%.
In the case of `CC[C@H](C)[C@@H]1NC(=O)[C@H](Cc2ccc(O)cc2)NC(=O)CNC(=O)CC[C@@H](C(=O)N2CCC[C@H]2C(=O)N[C@@H](CC(C)C)C(=O)NCC(N)=O)NC(=O)[C@H](CC(N)=O)NC(=O)[C@H](CCC(N)=O)NC1=O` [Example 24] (GYIQNEPLG-NH2; lactam N-6), the EC50 in experiment [1] is 2.2 nM; in experiment [2], greater than 27000 nM; in experiment [3], 2510 nM. For the same compound, the Emax came out at 152% in experiment [1] and 98% in experiment [3] (setting [4]).
In the same order, the values of `CC[C@H](C)[C@@H]1NC(=O)[C@H](Cc2ccc(O)cc2)NC(=O)CNC(=O)CC[C@@H](C(=O)N2C[C@H](O)C[C@H]2C(=O)N[C@@H](CC(C)C)C(=O)NCC(N)=O)NC(=O)[C@H](CC(N)=O)NC(=O)[C@H](CCC(N)=O)NC1=O` [Example 45] (GYIQNE[Hyp]LG-NH2; lactam N-6) are 0.6 nM, greater than 27000 nM, 3810 nM, 113% and 91%.
`CC[C@H](C)[C@@H]1NC(=O)[C@H](Cc2ccc(N)cc2)NC(=O)CNC(=O)CC[C@@H](C(=O)N2CCC[C@H]2C(=O)N[C@@H](CC(C)C)C(=O)NCC(N)=O)NC(=O)[C@H](CC(N)=O)NC(=O)[C@H](CCC(N)=O)NC1=O` [Example 10] (G[Phe(4-NH2)]IQNEPLG-NH2; lactam N-6): in experiment [1], the EC50 stood at 17 nM and the “hOT efficacy (%)” value was determined as 91%. The EC50 in experiment [2] was greater than 2700 nM.
In the same order, the values of `CC[C@H](C)[C@@H]1NC(=O)[C@H](Cc2ccc(O)cc2)NC(=O)CNC(=O)CC[C@@H](C(=O)N[C@@H](C)C(=O)N[C@@H](C)C(=O)NCC(N)=O)NC(=O)[C@H](CC(N)=O)NC(=O)[C@H](CCC(N)=O)NC1=O` [Example 16] (GYIQNEAAG-NH2; lactam N-6) are 30 nM, 105% and greater than 12000 nM.
With `CC[C@H](C)[C@@H]1NC(=O)[C@H](Cc2ccc(O)cc2)NC(=O)CNC(=O)CC[C@@H](C(=O)N2CCC[C@H]2C(=O)N[C@@H](CCCCN)C(=O)NCC(N)=O)NC(=O)[C@H](CC(N)=O)NC(=O)[C@H](CCC(N)=O)NC1=O` [Example 21] (GYIQNEPKG-NH2; lactam N-6), in experiment [1], the EC50 was found to be 12 nM and the “hOT efficacy (%)” value is recorded as 105%. The EC50 in experiment [2] is 32 nM. Besides, the “hV1a efficacy (%)” value in experiment [2] (setting [4]) worked out at 55%.
